What was measured:
Assay in all cases: relative viability (nuclei count vs DMSO), 5 days (fraction); higher = more cells survive
R406 + Crizotinib = compound: COc1cc(Nc2ncc(F)c(Nc3ccc4c(n3)NC(=O)C(C)(C)O4)n2)cc(OC)c1OC [R406] + C[C@@H](Oc1cc(-c2cnn(C3CCNCC3)c2)cnc1N)c1c(Cl)ccc(F)c1Cl [Crizotinib] (partner 1 µM)
Summary of the method: (§1)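 Lung cancer cell lines were seeded in 1536-well plates and dosed by pin tool the next day, with either a single drug or a fixed anchor-drug dose combined with five library-drug doses (not always all listed) spaced in √10 steps. Five days later, one step fixed the cells and stained their nuclei (final 0.05% Triton X-100, 1% formaldehyde, 1 ug/ml Hoechst), and nuclei were counted on 4× images. Relative viability is the nuclei count in treated wells divided by the count in vehicle wells, and each value is the median of duplicate plates.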

Daporinad + Palbociclib = compound: O=C(/C=C/c1cccnc1)NCCCCC1CCN(C(=O)c2ccccc2)CC1 [Daporinad] + CC(=O)c1c(C)c2cnc(Nc3ccc(N4CCNCC4)cn3)nc2n(C2CCCC2)c1=O [Palbociclib] (partner 0.5 µM)
Summary of the method: as §1

R406 + Linsitinib = compound: COc1cc(Nc2ncc(F)c(Nc3ccc4c(n3)NC(=O)C(C)(C)O4)n2)cc(OC)c1OC [R406] + C[C@]1(O)C[C@@H](c2nc(-c3ccc4ccc(-c5ccccc5)nc4c3)c3c(N)nccn32)C1 [Linsitinib] (partner 1 µM)
Summary of the method: as §1

Daporinad + Decitabine = compound: O=C(/C=C/c1cccnc1)NCCCCC1CCN(C(=O)c2ccccc2)CC1 [Daporinad] + Nc1ncn([C@H]2C[C@H](O)[C@@H](CO)O2)c(=O)n1 [Decitabine] (partner 2 µM)
Summary of the method: as §1

Row | Cell Line | relative viability (R406 + Crizotinib; first compound 0.08 µM) | relative viability (R406 + Crizotinib; first compound 0.253 µM) | relative viability (R406 + Crizotinib; first compound 0.8 µM) | relative viability (R406 + Crizotinib; first compound 8 µM) | relative viability (Daporinad + Palbociclib; first compound 0.0005 µM) | relative viability (Daporinad + Palbociclib; first compound 0.005 µM) | relative viability (Daporinad + Palbociclib; first compound 0.01581 µM) | relative viability (R406 + Linsitinib; first compound 0.08 µM) | relative viability (R406 + Linsitinib; first compound 0.253 µM) | relative viability (R406 + Linsitinib; first compound 0.8 µM) | relative viability (R406 + Linsitinib; first compound 8 µM) | relative viability (Daporinad + Decitabine; first compound 0.0005 µM) | relative viability (Daporinad + Decitabine; first compound 0.005 µM) | relative viability (Daporinad + Decitabine; first compound 0.01581 µM) | relative viability (R406 + Crizotinib; first compound 2.53 µM) | relative viability (Daporinad + Palbociclib; first compound 0.001581 µM) | relative viability (R406 + Linsitinib; first compound 2.53 µM) | relative viability (Daporinad + Decitabine; first compound 0.001581 µM)
1 | HCC-366 | 0.581 | 0.794 | 0.81 | 0.294 | 0.451 | 0.432 | 0.37 | 0.676 | 0.776 | 0.87 | 0.0785 | 0.413 | 0.368 | 0.321 |  |  |  | 
2 | HCC-827 | 0.975 | 0.952 | 0.899 | 0.409 | 0.419 | 0.5 | 0.435 | 0.975 | 0.929 | 0.937 | 0.477 | 0.322 | 0.351 | 0.336 | 0.841 | 0.486 | 0.886 | 0.356
3 | HOP-62 | 1.12 | 1.21 | 0.844 | 1.17 | 0.399 | 0.479 | 0.423 | 0.773 | 0.97 | 0.936 | 0.865 | 0.176 | 0.208 | 0.179 | 1.1 | 0.437 | 0.684 | 0.209
4 | IA-LM | 0.972 | 1.21 | 1.01 | 0.657 |  |  |  | 0.746 | 0.901 | 0.921 | 0.887 |  |  |  | 1.11 |  | 1.01 | 
5 | LC-2-ad | 0.436 | 0.456 | 0.455 | 0.357 | 0.463 | 0.491 | 0.486 | 0.828 | 0.832 | 0.729 | 0.158 | 0.769 | 0.743 | 0.838 | 0.381 | 0.511 | 0.385 | 0.882
6 | LCLC-97TM1 | 0.418 | 0.443 | 0.38 | 0.244 | 0.194 | 0.24 | 0.235 | 0.192 | 0.191 | 0.218 | 0.182 | 0.221 | 0.209 | 0.233 | 0.29 | 0.191 | 0.172 | 0.243
7 | LCLC-103H | 1.07 | 1.24 | 0.954 | 0.828 | 0.526 | 0.503 | 0.518 | 1.04 | 1.2 | 0.976 | 0.792 | 0.793 | 0.744 | 0.774 | 0.971 | 0.556 | 1.14 | 0.692
8 | LK-2 | 0.275 | 0.224 | 0.178 | 0.259 | 0.637 | 0.279 | 0.214 | 0.513 | 0.573 | 0.641 | 0.11 | 0.338 | 0.228 | 0.13 | 0.255 | 0.765 | 0.379 | 0.323
9 | LOU-NH91 | 0.745 | 0.728 | 0.756 | 0.57 | 0.442 | 0.548 | 0.509 | 0.992 | 0.882 | 0.982 | 0.521 | 0.824 | 0.877 | 0.947 | 0.504 | 0.519 | 0.602 | 0.837
10 | LU99A | 0.474 | 0.553 | 0.607 | 0.218 | 0.381 | 0.391 | 0.391 | 0.518 | 0.499 | 0.572 | 0.197 | 0.898 | 0.943 | 0.645 |  | 0.414 |  | 0.908

Reference: the supplement of paper PMC10307832
